ChEMBL document CHEMBL2074210, “A novel human organic anion transporting polypeptide localized to the basolateral hepatocyte membrane” (Am J Physiol Gastrointest Liver Physiol, 2000)

Legend:
Format in all cases: functional, cell-based
[1] = molecular target: T1, OATP-C (OATP1B1, SLCO1B1) (Homo sapiens, UniProt Q9Y6L6); assay: TP_TRANSPORTER: inhibition of E217betaG uptake (DIDS: 50 uM, E217betaG: 1 uM) in OATP-C-expressing HEK293 cells; set-up: scale not given: the % may be the effect or the level left; settings: probe E217betaG (estradiol 17beta-glucuronide), read-out: Activity
T1 sequence (Q9Y6L6 whole entry): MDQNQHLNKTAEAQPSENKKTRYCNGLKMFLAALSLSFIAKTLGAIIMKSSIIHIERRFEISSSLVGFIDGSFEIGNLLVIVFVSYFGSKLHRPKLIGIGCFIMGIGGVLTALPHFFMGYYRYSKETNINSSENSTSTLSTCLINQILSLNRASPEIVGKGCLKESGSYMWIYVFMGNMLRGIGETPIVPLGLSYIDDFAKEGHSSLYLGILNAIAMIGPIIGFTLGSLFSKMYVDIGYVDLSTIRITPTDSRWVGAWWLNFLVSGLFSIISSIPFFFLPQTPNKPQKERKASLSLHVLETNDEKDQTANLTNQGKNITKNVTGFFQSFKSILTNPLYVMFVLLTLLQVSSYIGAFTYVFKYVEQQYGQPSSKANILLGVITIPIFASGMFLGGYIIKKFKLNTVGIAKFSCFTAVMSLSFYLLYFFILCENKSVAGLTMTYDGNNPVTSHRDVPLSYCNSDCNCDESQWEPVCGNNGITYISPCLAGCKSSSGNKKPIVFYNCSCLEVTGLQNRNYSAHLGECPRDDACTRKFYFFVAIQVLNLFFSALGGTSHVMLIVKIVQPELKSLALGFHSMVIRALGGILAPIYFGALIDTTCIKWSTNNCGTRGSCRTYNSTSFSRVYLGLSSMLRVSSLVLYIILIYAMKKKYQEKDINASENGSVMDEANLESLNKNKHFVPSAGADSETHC

[2] = molecular target: T2, Solute carrier organic anion transporter family member 1B1 (Homo sapiens, UniProt Q9Y6L6); assay: (§1) TP_TRANSPORTER: uptake in OATP-C-expressing HEK293 cells
T2 sequence (Q9Y6L6 whole entry): T1 sequence (Q9Y6L6 whole entry)

[3] = molecular target: T2, Solute carrier organic anion transporter family member 1B1; assay: TP_TRANSPORTER: inhibition of E217betaG uptake in OATP-C-expressing HEK293 cells
[4] = substrate: C[C@]12CC[C@@H]3c4ccc(O)cc4CC[C@H]3[C@@H]1CC[C@@H]2O[C@@H]1O[C@H](C(=O)O)[C@@H](O)[C@H](O)[C@H]1O; assay: as §1

O=S(=O)(O)c1cc(N=C=S)ccc1/C=C/c1ccc(NC=S)cc1S(=O)(=O)O
activity at 50 µM [1]: 6%

C=CC1=C(C)/C(=C/c2[nH]c(Cc3[nH]c(/C=C4\NC(=O)C(C)=C4C=C)c(C)c3CCC(=O)O[C@@H]3OC(C(=O)O)[C@@H](O)C(O)C3O)c(CCC(=O)O)c2C)NC1=O (some centres undefined) [BILIRUBIN MONOGLUCURONIDE]
Activity [2]: substrate [+]

O=C1OC(c2ccc(O)c(S(=O)(=O)O)c2)(c2ccc(O)c(S(=O)(=O)O)c2)c2c(Br)c(Br)c(Br)c(Br)c21 [SULFOBROMOPHTHALEIN SODIUM]
Ki [3]: 44 nM

B1: Solute carrier organic anion transporter family member 1B1 (Homo sapiens) (protein)
chain: T1 sequence (Q9Y6L6 whole entry)
Km [4]: 8.2 µM
